Results: ChEMBL document CHEMBL1201862, “PubChem BioAssay data set” (2004)
Calls of active or inactive are those of the source.

Tests used:
[1] = target: Induced myeloid leukemia cell differentiation protein Mcl-1 (Homo sapiens, UniProt Q07820); format: functional
[2] = target: Dual specificity protein phosphatase 3 (Homo sapiens, UniProt P51452); test: VHR1 phosphatase inhibitors, primary screen, biochemical, absorbance, uHTS (AID 1654)
Nonstructural protein 1 = Nonstructural protein 1 (Influenza A virus, UniProt Q194T2); format: functional, Influenza A virus (A/California/07/2009(H1N1))
Nonstructural protein 1, sequence (Q194T2 whole entry): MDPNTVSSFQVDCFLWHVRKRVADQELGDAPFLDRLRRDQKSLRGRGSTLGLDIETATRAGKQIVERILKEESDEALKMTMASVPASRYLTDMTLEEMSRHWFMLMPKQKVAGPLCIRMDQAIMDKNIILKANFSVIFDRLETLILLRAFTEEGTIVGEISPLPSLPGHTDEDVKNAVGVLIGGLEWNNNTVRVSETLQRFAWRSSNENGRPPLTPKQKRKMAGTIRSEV

[3] = target: Mitogen-activated protein kinase 8 (Homo sapiens, UniProt P45983); format: functional;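 note: value comes from one member of a kinome-wide kinase profiling panel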
Mitogen-activated protein kinase 8, sequence (P45983 whole entry, canonical isoform): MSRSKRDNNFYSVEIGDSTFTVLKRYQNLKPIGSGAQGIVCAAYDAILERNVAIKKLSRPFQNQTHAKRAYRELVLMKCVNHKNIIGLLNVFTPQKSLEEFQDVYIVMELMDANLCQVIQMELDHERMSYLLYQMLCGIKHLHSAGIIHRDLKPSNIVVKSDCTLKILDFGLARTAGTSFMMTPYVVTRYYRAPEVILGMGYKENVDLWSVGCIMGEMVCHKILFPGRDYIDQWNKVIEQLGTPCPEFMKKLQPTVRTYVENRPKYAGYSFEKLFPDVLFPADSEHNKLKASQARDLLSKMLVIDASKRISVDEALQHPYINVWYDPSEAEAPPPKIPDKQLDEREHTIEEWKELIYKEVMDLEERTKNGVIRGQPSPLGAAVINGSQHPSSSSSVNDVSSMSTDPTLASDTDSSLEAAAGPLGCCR

[4] = target: Casein kinase I isoform alpha (Homo sapiens, UniProt P48729); format: functional
Casein kinase I isoform alpha, sequence (P48729 whole entry, canonical isoform): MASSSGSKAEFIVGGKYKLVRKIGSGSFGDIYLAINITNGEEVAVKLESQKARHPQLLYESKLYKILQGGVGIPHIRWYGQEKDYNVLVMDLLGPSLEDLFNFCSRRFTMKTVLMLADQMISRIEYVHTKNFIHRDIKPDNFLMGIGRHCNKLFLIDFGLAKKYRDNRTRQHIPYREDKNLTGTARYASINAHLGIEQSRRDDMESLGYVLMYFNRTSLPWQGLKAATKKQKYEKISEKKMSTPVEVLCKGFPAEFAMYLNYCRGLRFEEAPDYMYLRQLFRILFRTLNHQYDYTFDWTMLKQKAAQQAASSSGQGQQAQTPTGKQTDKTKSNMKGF

[5] = target: Casein kinase II subunit alpha (Homo sapiens, UniProt P68400); format: functional
Casein kinase II subunit alpha, sequence (P68400 whole entry): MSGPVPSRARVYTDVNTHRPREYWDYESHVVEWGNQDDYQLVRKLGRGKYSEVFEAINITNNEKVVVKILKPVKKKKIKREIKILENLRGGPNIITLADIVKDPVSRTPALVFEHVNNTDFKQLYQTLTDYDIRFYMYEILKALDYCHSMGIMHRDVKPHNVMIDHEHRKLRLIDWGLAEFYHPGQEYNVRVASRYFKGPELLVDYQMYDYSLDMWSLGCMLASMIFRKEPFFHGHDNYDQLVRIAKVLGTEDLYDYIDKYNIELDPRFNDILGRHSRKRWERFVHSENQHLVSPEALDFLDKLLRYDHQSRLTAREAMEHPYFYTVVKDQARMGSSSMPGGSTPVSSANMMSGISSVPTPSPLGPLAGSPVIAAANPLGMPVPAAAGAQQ

Aurora kinase B = Aurora kinase B (Homo sapiens, UniProt Q96GD4); format: functional
Aurora kinase B, sequence (Q96GD4 whole entry): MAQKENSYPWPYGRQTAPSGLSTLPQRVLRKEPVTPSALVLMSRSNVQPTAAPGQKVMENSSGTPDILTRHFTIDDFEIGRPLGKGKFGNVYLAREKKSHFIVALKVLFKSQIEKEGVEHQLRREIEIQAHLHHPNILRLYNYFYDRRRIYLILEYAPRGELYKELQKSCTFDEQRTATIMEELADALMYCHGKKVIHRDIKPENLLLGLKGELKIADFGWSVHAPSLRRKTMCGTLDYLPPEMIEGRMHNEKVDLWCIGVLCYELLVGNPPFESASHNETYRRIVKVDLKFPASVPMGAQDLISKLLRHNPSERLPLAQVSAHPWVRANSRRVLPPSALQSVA

[6] = target: Dual specificity mitogen-activated protein kinase kinase 1 (Homo sapiens, UniProt Q02750); test: Navigating the Kinome. Panel member name: MAP2K1; format: functional
Dual specificity mitogen-activated protein kinase kinase 1, sequence (Q02750 whole entry): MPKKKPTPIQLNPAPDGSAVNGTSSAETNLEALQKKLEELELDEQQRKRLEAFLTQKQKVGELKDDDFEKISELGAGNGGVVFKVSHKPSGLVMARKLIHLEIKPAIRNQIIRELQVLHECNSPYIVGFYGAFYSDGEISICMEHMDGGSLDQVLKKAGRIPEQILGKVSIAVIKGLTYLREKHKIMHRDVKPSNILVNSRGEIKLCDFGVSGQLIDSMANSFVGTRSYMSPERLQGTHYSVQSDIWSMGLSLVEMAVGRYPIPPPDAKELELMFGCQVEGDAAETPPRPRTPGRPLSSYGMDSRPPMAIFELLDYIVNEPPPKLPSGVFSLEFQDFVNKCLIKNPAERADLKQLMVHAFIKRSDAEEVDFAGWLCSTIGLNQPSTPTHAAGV

[7] = target: Serine/threonine-protein kinase pim-1 (Homo sapiens, UniProt P11309); format: functional
Serine/threonine-protein kinase pim-1, sequence (P11309 whole entry): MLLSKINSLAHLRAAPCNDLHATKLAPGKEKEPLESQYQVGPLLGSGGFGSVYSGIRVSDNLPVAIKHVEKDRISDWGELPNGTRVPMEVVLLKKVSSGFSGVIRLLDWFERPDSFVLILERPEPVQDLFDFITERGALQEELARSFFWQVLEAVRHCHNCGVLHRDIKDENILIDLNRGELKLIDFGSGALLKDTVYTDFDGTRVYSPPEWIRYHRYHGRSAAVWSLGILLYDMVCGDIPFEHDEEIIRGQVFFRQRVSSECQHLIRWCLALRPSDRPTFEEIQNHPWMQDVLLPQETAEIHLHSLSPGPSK

[8] = target: Cyclin-dependent kinase 7 (Homo sapiens, UniProt P50613); format: functional;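 note: value comes from a kinome-wide kinase profiling panel in which CDK7 is one member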
Cyclin-dependent kinase 7, sequence (P50613 whole entry): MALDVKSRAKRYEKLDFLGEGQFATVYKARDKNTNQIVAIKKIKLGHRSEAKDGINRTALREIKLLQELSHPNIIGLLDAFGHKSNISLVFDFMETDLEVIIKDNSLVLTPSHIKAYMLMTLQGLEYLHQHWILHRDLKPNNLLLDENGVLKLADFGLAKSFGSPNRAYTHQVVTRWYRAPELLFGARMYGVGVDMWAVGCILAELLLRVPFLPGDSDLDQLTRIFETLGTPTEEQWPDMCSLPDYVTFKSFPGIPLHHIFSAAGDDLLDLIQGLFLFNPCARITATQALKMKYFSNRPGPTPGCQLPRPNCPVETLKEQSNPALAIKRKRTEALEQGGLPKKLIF

[9] = target: Proto-oncogene tyrosine-protein kinase Src (Homo sapiens, UniProt P12931); format: functional;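 note: SRC entry within a kinome-wide kinase profiling panel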
Proto-oncogene tyrosine-protein kinase Src, sequence (P12931 2-536 limits assumed): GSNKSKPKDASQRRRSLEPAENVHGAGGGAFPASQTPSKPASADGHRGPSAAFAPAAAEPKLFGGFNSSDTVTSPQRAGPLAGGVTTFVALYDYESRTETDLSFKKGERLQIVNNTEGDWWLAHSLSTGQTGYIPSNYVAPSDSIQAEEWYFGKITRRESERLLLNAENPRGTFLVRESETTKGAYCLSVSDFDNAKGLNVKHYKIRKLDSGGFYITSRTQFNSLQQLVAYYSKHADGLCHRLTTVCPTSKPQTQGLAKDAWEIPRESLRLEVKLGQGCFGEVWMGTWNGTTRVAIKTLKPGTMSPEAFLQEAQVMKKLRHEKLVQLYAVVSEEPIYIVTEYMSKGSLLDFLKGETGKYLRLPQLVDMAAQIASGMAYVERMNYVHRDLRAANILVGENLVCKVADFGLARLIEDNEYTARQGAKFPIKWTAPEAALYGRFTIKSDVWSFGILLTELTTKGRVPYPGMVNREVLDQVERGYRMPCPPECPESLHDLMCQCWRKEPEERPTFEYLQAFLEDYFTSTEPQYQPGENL

[10] = target: Mitogen-activated protein kinase 14 (Homo sapiens, UniProt Q16539); format: functional;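 note: part of a kinome-wide panel, MAPK14 entry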
Mitogen-activated protein kinase 14, sequence (Q16539 whole entry): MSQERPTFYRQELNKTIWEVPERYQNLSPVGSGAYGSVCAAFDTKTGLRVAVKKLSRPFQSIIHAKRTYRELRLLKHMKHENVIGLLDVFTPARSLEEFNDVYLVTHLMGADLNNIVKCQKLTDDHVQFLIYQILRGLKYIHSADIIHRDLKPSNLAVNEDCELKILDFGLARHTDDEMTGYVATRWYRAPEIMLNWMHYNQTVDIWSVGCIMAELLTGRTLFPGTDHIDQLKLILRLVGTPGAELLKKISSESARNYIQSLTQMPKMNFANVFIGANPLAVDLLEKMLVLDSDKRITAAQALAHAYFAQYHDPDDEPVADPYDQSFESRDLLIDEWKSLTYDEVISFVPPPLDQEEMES

Dual specificity protein phosphatase 3, sequence (P51452 whole entry): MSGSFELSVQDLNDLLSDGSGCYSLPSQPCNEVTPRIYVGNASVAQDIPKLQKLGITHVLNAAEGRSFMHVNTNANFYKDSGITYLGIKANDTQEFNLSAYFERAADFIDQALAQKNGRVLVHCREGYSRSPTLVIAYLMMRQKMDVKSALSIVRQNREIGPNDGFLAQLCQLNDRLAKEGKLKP
Induced myeloid leukemia cell differentiation protein Mcl-1, sequence (Q07820 whole entry): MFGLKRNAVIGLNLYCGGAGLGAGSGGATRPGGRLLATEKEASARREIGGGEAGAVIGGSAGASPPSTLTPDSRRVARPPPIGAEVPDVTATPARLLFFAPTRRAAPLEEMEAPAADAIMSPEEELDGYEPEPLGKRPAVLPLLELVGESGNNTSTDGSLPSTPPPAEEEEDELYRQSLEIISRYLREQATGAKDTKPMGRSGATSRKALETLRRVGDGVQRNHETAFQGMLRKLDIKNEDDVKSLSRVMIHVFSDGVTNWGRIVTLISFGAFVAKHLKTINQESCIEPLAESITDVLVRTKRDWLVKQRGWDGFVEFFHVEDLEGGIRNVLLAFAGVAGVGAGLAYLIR

With `CS(=O)(=O)c1ccc2c(c1)SC1=NC(=O)/C(=C/c3ccc(O)c(O)c3)C(=N)N12` the IC50 [1] was 5.26 µM (active) and the IC50 [2] was 10.4 µM (active).

For `CCOC(=O)C(C(=O)OCC)c1cc(Br)c2noc3c2c1C(=O)c1ccccc1-3`, the IC50 (Nonstructural protein 1) was 35.5 µM (active).

With `COc1ccc(C(=O)Nc2n[nH]c3ccc(-c4cn(Cc5ccccc5)nn4)cc23)cc1OC` the Ki [3] was 631 nM (active), the Ki [4] was 398 nM (active) and the Ki [5] was 15.8 nM (active). The Ki (Aurora kinase B) was 200 nM (active), the Ki [6] was 1.26 µM (active) and the Ki [7] was > 5.01 µM (inactive). The Ki [8] was 126 nM (active), the Ki [9] was 316 nM (active) and the Ki [10] was > 3.98 µM (inactive).
